Measurements from PubChem BioAssay (NCI).
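The concentration for 50% growth inhibition is given as GI50. TGI: concentration producing complete growth inhibition.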

Legend:
Test in all cases: inhibition of tumour cell growth, NCI panel, 384-well format
MDA-MB-231 breast = tested on: MDA-MB-231 breast
U251 glioblastoma = tested on: U251 glioblastoma
SK-MEL-5 melanoma = tested on: SK-MEL-5 melanoma
CAKI-1 renal = tested on: CAKI-1 renal
UO-31 renal = tested on: UO-31 renal
MDA-MB-468 breast = tested on: MDA-MB-468 breast
UACC-257 melanoma = tested on: UACC-257 melanoma
OVCAR-8 ovarian = tested on: OVCAR-8 ovarian
CCRF-CEM leukemia = tested on: CCRF-CEM leukemia
RXF 393 renal = tested on: RXF 393 renal
HL-60(TB) leukemia = tested on: HL-60(TB) leukemia
NCI/ADR-RES ovarian = tested on: NCI/ADR-RES ovarian
SK-MEL-28 melanoma = tested on: SK-MEL-28 melanoma
OVCAR-5 ovarian = tested on: OVCAR-5 ovarian
TK-10 renal = tested on: TK-10 renal
MALME-3M melanoma = tested on: MALME-3M melanoma
HOP-62 NSCLC = tested on: HOP-62 NSCLC
HCT-116 colon = tested on: HCT-116 colon
HT29 colon = tested on: HT29 colon
RPMI-8226 leukemia = tested on: RPMI-8226 leukemia
A498 renal = tested on: A498 renal
IGROV1 ovarian = tested on: IGROV1 ovarian
SK-OV-3 ovarian = tested on: SK-OV-3 ovarian
SF-268 CNS = tested on: SF-268 CNS
T-47D breast = tested on: T-47D breast
SN12C renal = tested on: SN12C renal
NCI-H226 lung = tested on: NCI-H226 lung
HOP-92 NSCLC = tested on: HOP-92 NSCLC
K-562 leukemia = tested on: K-562 leukemia
OVCAR-3 ovarian = tested on: OVCAR-3 ovarian
SW-620 colon = tested on: SW-620 colon
HCT-15 colon = tested on: HCT-15 colon
NCI-H23 lung = tested on: NCI-H23 lung
SF-295 CNS = tested on: SF-295 CNS
SK-MEL-2 melanoma = tested on: SK-MEL-2 melanoma
NCI-H460 NSCLC = tested on: NCI-H460 NSCLC
EKVX NSCLC = tested on: EKVX NSCLC
SNB-19 CNS = tested on: SNB-19 CNS
MDA-MB-435 melanoma = tested on: MDA-MB-435 melanoma
MOLT-4 leukemia = tested on: MOLT-4 leukemia
DU-145 prostate = tested on: DU-145 prostate
NCI-H322M lung = tested on: NCI-H322M lung
A549 NSCLC = tested on: A549 NSCLC
M14 melanoma = tested on: M14 melanoma
OVCAR-4 ovarian = tested on: OVCAR-4 ovarian
PC-3 prostate = tested on: PC-3 prostate
ACHN renal = tested on: ACHN renal

O=C1CC(c2ccc(N3CCOCC3)cc2)(c2ccsc2)NC(=O)C1Sc1ccccc1Cl (stereo not drawn)
GI50 (MDA-MB-231 breast): 13.9 µM | TGI (MDA-MB-231 breast): > 100 µM | GI50 (U251 glioblastoma): 5.73 µM | TGI (U251 glioblastoma): 65.7 µM | GI50 (SK-MEL-5 melanoma): > 100 µM | TGI (SK-MEL-5 melanoma): > 100 µM | GI50 (CAKI-1 renal): 52.7 µM | TGI (CAKI-1 renal): > 100 µM | GI50 (UO-31 renal): 33.7 µM | TGI (UO-31 renal): > 100 µM | GI50 (MDA-MB-468 breast): > 100 µM | TGI (MDA-MB-468 breast): > 100 µM | GI50 (UACC-257 melanoma): > 100 µM | TGI (UACC-257 melanoma): > 100 µM | GI50 (OVCAR-8 ovarian): 3.45 µM | TGI (OVCAR-8 ovarian): 18.2 µM | GI50 (CCRF-CEM leukemia): 3.39 µM | TGI (CCRF-CEM leukemia): > 21.9 µM | GI50 (RXF 393 renal): 2.58 µM | TGI (RXF 393 renal): 7.47 µM | GI50 (HL-60(TB) leukemia): 2.82 µM | GI50 (NCI/ADR-RES ovarian): 19.4 µM | TGI (NCI/ADR-RES ovarian): 41.5 µM | GI50 (SK-MEL-28 melanoma): 66.7 µM | TGI (SK-MEL-28 melanoma): > 100 µM | GI50 (OVCAR-5 ovarian): 67.7 µM | TGI (OVCAR-5 ovarian): > 100 µM | GI50 (TK-10 renal): 75.9 µM | TGI (TK-10 renal): > 100 µM | GI50 (MALME-3M melanoma): > 51.2 µM | TGI (MALME-3M melanoma): > 100 µM | GI50 (HOP-62 NSCLC): 13.6 µM | TGI (HOP-62 NSCLC): > 100 µM | GI50 (HCT-116 colon): 36.8 µM | TGI (HCT-116 colon): > 100 µM | GI50 (HT29 colon): 62.7 µM | TGI (HT29 colon): > 100 µM | GI50 (RPMI-8226 leukemia): 10.5 µM | TGI (RPMI-8226 leukemia): 41.2 µM | GI50 (A498 renal): 18.5 µM | TGI (A498 renal): > 88.7 µM | GI50 (IGROV1 ovarian): 46.5 µM | TGI (IGROV1 ovarian): > 100 µM | GI50 (SK-OV-3 ovarian): > 85.3 µM | TGI (SK-OV-3 ovarian): > 100 µM | GI50 (SF-268 CNS): 51.2 µM | TGI (SF-268 CNS): > 100 µM | GI50 (T-47D breast): 66 µM | TGI (T-47D breast): > 100 µM | GI50 (SN12C renal): 4.53 µM | TGI (SN12C renal): 23.4 µM | GI50 (NCI-H226 lung): 50.3 µM | TGI (NCI-H226 lung): > 100 µM | GI50 (HOP-92 NSCLC): 3.34 µM | TGI (HOP-92 NSCLC): 18.7 µM | GI50 (K-562 leukemia): 3.97 µM | TGI (K-562 leukemia): > 100 µM | GI50 (OVCAR-3 ovarian): 34.2 µM | TGI (OVCAR-3 ovarian): > 100 µM | GI50 (SW-620 colon): 16.7 µM | TGI (SW-620 colon): > 51.8 µM | GI50 (HCT-15 colon): 63 µM | TGI (HCT-15 colon): > 100 µM | GI50 (NCI-H23 lung): > 95.8 µM | TGI (NCI-H23 lung): > 100 µM | GI50 (SF-295 CNS): 35.7 µM | TGI (SF-295 CNS): > 100 µM | GI50 (SK-MEL-2 melanoma): > 56.1 µM | TGI (SK-MEL-2 melanoma): > 100 µM | GI50 (NCI-H460 NSCLC): 9.07 µM | TGI (NCI-H460 NSCLC): 98.5 µM | GI50 (EKVX NSCLC): 98.9 µM | TGI (EKVX NSCLC): > 100 µM | GI50 (SNB-19 CNS): 16.9 µM | TGI (SNB-19 CNS): 63.8 µM | GI50 (MDA-MB-435 melanoma): > 100 µM | TGI (MDA-MB-435 melanoma): > 100 µM | GI50 (MOLT-4 leukemia): 9.17 µM | TGI (MOLT-4 leukemia): 22 µM | GI50 (DU-145 prostate): 53.9 µM | TGI (DU-145 prostate): > 100 µM | GI50 (NCI-H322M lung): > 100 µM | TGI (NCI-H322M lung): > 100 µM | GI50 (A549 NSCLC): > 80.4 µM | TGI (A549 NSCLC): > 100 µM | GI50 (M14 melanoma): 53.1 µM | TGI (M14 melanoma): > 100 µM | GI50 (OVCAR-4 ovarian): 34 µM | TGI (OVCAR-4 ovarian): > 100 µM | GI50 (PC-3 prostate): 43.6 µM | TGI (PC-3 prostate): > 100 µM | GI50 (ACHN renal): 33 µM | TGI (ACHN renal): 98.7 µM
